Assay results taken from US12054742B2, “Compositions and methods to derive mesodermal lineage cells and mixed tissue organoids from embryonic stem cells” (THE REGENTS OF THE UNIVERSITY OF MICHIGAN, priority 2018, dated 2024).

Experiments:
Format in all cases: cell-based, mouse
[1] = system: hWDR5Dox;mWdr5KO organoids; test: RT-qPCR of cardiomyocyte markers cTnT and aMHC after late (T48h) induction of hWDR5; conditions: Dox added at T48h
Description: FIGS. 4A-4K. Late induction of hWDR5 skews ESC differentiation from retinal neuroectoderm to cardiac mesoderm. (FIGS. 4A, 4B, 4C and 4D) RT-qPCR analysis of pluripotent marker (Oct4, FIG. 4A), neuroepithelial marker (N-Cadherin, FIG. 4B), retinal ectoderm marker (Rax/Rx, FIG. 4C) and cardiomyocyte mesoderm marker (cTnT, FIG. 4D) during time-course differentiation of WT, early induction (T12h), late induction (T36h or T48h) of exogenous hWDR5 in hWDR5^Dox;mWdr5^KO (i.e., mWdr5 KO) EBs. […] (FIG. 4H) Critical time points for exogenous hWDR5 linked to cardiomyocyte differentiation were determined by cTnT RT-qPCR. […] Induction of early mesoderm marker (T/Brachyury) and cTnT was determined by RT-qPCR.
Trizol reagent (ThermoFisher Scientific) and RNeasy mini kit (Qiagen) were utilized for RNA isolation from ESCs or EBs. […] Data were automatically analyzed using Bio-Rad CFX manager software using Δ/ΔCt method.
In various aspects of the disclosure, quantitative reverse transcription PCR (RT-qPCR) is used to analyze results obtained in the examples. […] Data is automatically analyzed using Bio-Rad CFX manager software using Δ/ΔCt method.
Third, immunohistochemistry (IHC) was used to assay for cardiomyocyte-specific proteins in T48h conditions. […] Neither cTnT nor Myh1e were detected in WT and T12h conditions. […]

[2] = system: hWDR5Dox;mWdr5KO (mWdr5 KO) organoids; test: Rx-GFP (+) retinal lineage cell differentiation scored by flow cytometry (day 5); conditions: Dox from T0h
Description: (§1) FIGS. 2A-2H. WDR5 regulates retinal progenitor cell fate transition in a dose- and time-dependent manner. (FIG. 2A) Tight control of exogenous HA-hWDR5 during early time window of ESC differentiation. hWDR5^Dox;mWdr5^KO (i.e., mWdr5 KO) ESCs were maintained in Dox (+) ESC media and Dox was removed upon ESC differentiation (day 0 or EB day 0 (EB0)). At different time points (0 h, 24 h, 36 h, 48 h, 60 h), cells were collected and subjected to probe HA-hWDR5 expression (a-HA). Tubulin: loading control. (FIG. 2B) Dose-dependent induction of exogenous hWDR5 and H3K4me during ESC differentiation. mWdr5 KO ESCs were maintained in Dox (+) ESC media and Dox was removed upon ESC differentiation (day 0). At 12 h post differentiation, different doses of Dox were added to mWdr5 KO EBs. At embryoid body (EB) day 4 (EB4), EBs were collected and extracted histones were subjected to western blotting. Total H3 was used as loading control. […] Cell proliferation was determined at EB day 4 (FIG. 2C) and Rx-GFP positive retinal progenitor cells were scored by flow cytometry at day 5 (FIG. 2D). […] Cell proliferation was recorded at EB day 4 (FIG. 2E) and Rx-GFP positive retinal progenitor cells at EB day 5 were scored by flow cytometry (FIG. 2F). […] (FIG. 2H) Wdr5 regulates RPC differentiation in a time-dependent manner as determined by Rx/Rax mRNA RT-qPCR. […]

[3] = system: hWDR5Dox;mWdr5KO (mWdr5 KO) organoids; test: Cell proliferation of differentiating mWdr5 KO organoids in retinal culture conditions (EB day 4); conditions: Dox added at T0h, organoid day 4
Description: as §1

C[C@H]1c2cccc(O)c2C(=O)C2=C(O)[C@]3(O)C(=O)C(C(N)=O)=C(O)[C@@H](N(C)C)[C@@H]3[C@@H](O)[C@@H]21 [Dox, doxycycline]
Dox concentrations that induced cTnT and aMHC expression [1]: up to 125 ng/ml | Dox dose at which proportion of Rx-GFP (+) RLCs reached a plateau [2]: 500 ng/mL | Dox dose at which proportion of Rx-GFP (+) RLCs was comparable to WT controls [2]: 250 ng/mL | Dox concentration at which rescue of the proliferation defect reached a plateau [3]: 250 ng/mL
